# Measurements as given in patent publication US6218378A, “Anti-tumor agents comprising pyridyl-substituted metal-diphosphine complex” (priority 1994, dated 2001).
# Experiments:
# Format in all cases: cell-based, human
# PC9 = test: activity against cisplatin sensitive lung tumour PC9; details: very preliminary data
# Excerpt: In Table 1, JAM and CI-80-13S are ovarian tumours, HeLa is a cervical tumour and MM96 is a melanoma In Table 2, all the tumours are ovarian tumours. […] In this regard, PC9 is a lung tumour and its derivation is discussed in Hong et al., 1993, Cancer Research 53 3302-3307 and Bungo et al., 1990, Cancer Research 50 2549-2553.
# [1] = tested on: 41M, 41M-cisR, SKOV-3, CH1, CH1-cisR; test: growth inhibition of cisplatin-sensitive and -resistant ovarian cancer cell lines (Table 2, FIG. 5)
# Excerpt: The sensitive CH1 cell line was established from a patient with drug-sensitive disease and its resistant variant (CH1-cisR) was generated by prolonged in vitro exposure to cisplatin during which it acquired more efficient DNA repair as described in Kelland et al., 1992, Cancer Research 52 3857-3864. The sensitive 41M cell line was also established from a patient with a sensitive tumor and its resistant variant (41M-cisR) was generated in the same way but acquired decreased uptake across the cell membrane (Kelland et al., 1992, supra). The intrinsically-resistant SKOV-3 ovarian carcinoma cell line has high glutathione levels as described in Mistry et al., 1991, Brit. J. Cancer 64 215-220 and reduced levels of bi-functional cisplatin-DNA lesions as described in McKeage et al., 1994, Brit. J. Cancer 69 1-7. The characteristics of the cell line pairs CH1/CH1 cisR, 41M/41McisR and 41M/SKOV3 are described in Table 3.
# The cytotoxicity assay used sulforhodamine B which stains the basic amino acids. Cells (5000 or 2500 for SKOV-3) were seeded into 96 well microtitre plates (Linbro, Flow Laboratories Inc., USA) in 0.1 ml of medium. After an overnight incubation, the metal phosphine compounds were dissolved in 0.9% NaCl or ethanol and diluted with medium, were added at concentrations ranging from 0.005 to 50 μM to quadruplicate wells. After 96 hrs incubation, the medium was removed and cells were fixed in 0.2 ml of cold 10% (w/v) trichloroacetic acid (May & Baker Ltd., Dagenham, England) for 30 mins at 4° C. The plates were washed five times with tap water. Then 0.1 ml of 0.4% (w/v) sulforhodamine B (Sigma Chemical Co., St. Louis, USA) dissolved in 1% acetic acid (Ajax Chemicals, Australia) was added to the wells and left to stand at room temperature for 15 mins. The plates were then washed five times with 1% acetic acid and left to dry overnight. The next morning, 0.1 ml of 10 mM Tris buffer (Sigma Chemical Co., St. Louis, USA) was then added to each plate to solubilise the dye. Absorbance was read at a wavelength of 570 nm using a 96 well plate reader Dynatech MR 5000 plate reader. Absorbance of treatment cells was expressed as a percentage of positive (drug-free) controls. The results were plotted as percentage growth versus drug concentration. The drug concentration resulting in a 50% growth inhibition was termed the IC50. The passage numbers used for the cytotoxicity assay from each cell line were, CH1 passages 50-58, CH1 cis-R passages 77-83, 41M passages 50-63, 41M cisR 81-92 and SKOV-3 passages 106-128.
# HeLa-S1a = test: cell survival after drug treatment ([methyl-3H]-thymidine)
# Excerpt: (§1) In FIGS. 1-4 and Table 1, reference is made to the cell lines HeLa, HeLa-S1a, JAM, CI-80-13S and MM96.
# (§2) The origins of the human melanoma cell line MM96 has been described in Whitehead et al., 1973, Pigment Cell 1 383-389. The cell line JAM is described in Ward et al., 1987, Cancer Res. 47 2662-2667. The origin of the ovarian tumour line CI-80-13S has been described in Bertoncello et al., 1985, Aust. J. Exp. Biol. Med. Sci. 63 241-243. The origin of the cervical carcinoma cell line HeLa has been described in Maynard et al., 1986, Cancer Res. 46 5009-5093. The subclone HeLa-S1a was derived by stably transfecting HeLa with PAI-2 cDNA described in Schleuning et al., 1987, Mol. Cell. Biol. 7 4564-4567 in the sense orientation under the control of the cyto-megalovirus (CMV) promoter. The stably infected subclone was isolated following G418 selection and expression of the PAI-2 transgene characterised by immunoblot analysis and quantitated by ELISA. All of these cell lines have been used before for carrying out cell survival assays referred to in FIGS. 1-4. Cells were cultured at 37° in 5% CO2 /air in Roswell Park Memorial Institute medium 1640 containing 5% foetal calf serum, 100 μg/ml streptomycin, 100 IU/ml penicillin, 1 mM pyruvate, 50 μM nicotinamide and 3 mM HEPES.
# (§3) Cells were seeded in microtitre plates (lowest number for fastest growing cells: 1000 HeLa, 2000 MM96, […] CI-80-13S cells per 6 mm well in 100 μl), normally but not necessarily allowed to attach overnight, then 5 dilutions of the drug were added to duplicate wells. After an overnight incubation to equilibrate the pH, the lids were quickly taped around the edge to prevent evaporation. The plates were incubated for 5-7 days, until the controls were nearly confluent. Cell growth/morphology was scored at each dose visually (inverted microscope). The medium was then replaced by 50 μl fresh medium containing 2 u/Ci/ml [methyl-3H]-thymidine (5 Ci/mmol; Radiochemical Centre, Amersham, Bucks., U.K.) and incubated for 2-4 hr. The cells were washed with PBS (0.1 M NaCl, 50 mM phosphate, pH 7.2), detached with 100 μl of PBS containing 0.2 mg/ml trypsin and 10 mM EDTA, and washed onto a glass fibre GF/a filter mat with water using a cell harvester. Later, wells were checked under the microscope to ensure complete detachment and washout. Radioactivity was determined in an LKB Beta Plate counter and the results plotted as log % control cpm versus dose. The ID50 (dose required to give 50% survival) was interpolated from this survival curve.
# CI-80-13S = test: as above
# Excerpt: as §1, §2, §3
# MM96 = test: as above
# Excerpt: as §1, §2, §3
# HeLa = test: as above
# Excerpt: as §1, §2, §3
compound,measurement,setting,value
[Cl-].c1cc([P+]2(c3ccncc3)CC[P+](c3ccncc3)(c3ccncc3)[Au-3]23[P+](c2ccncc2)(c2ccncc2)CC[P+]3(c2ccncc2)c2ccncc2)ccn1 [[Au(d4pype)2]Cl],IC50,PC9; PC9 lung tumour,25 µM
same,activity against PC9,PC9; cisplatin sensitive lung tumour,modest activity
same,selectivity and cytotoxicity in ovarian cancer cell-lines (FIG. 5),[1],exhibits the greatest selectivity killing only the CH1/CH1 cisR pair
same,cytotoxicity (FIGS. 1 and 2),HeLa-S1a; HeLa-S1a in vitro,selectively cytotoxic
same,IC50,"HeLa-S1a; HeLa-S1a, mean ± SD or individual values when n<3, 5-7 days",0.3 µM
same,cytotoxicity (FIGS. 1 and 2),CI-80-13S; CI-80-13S ovarian in vitro,selectively cytotoxic
same,IC50,"CI-80-13S; CI-80-13S, mean ± SD or individual values when n<3, 5-7 days",0.32 ± 0.15 µM
same,IC50,"MM96; MM96L, mean ± SD or individual values when n<3, 5-7 days",> 10 µM
same,cytotoxicity (FIGS. 1 and 2),MM96; MM96 melanoma in vitro,inactive
same,cytotoxicity (FIGS. 1 and 2),HeLa; HeLa cervical carcinoma in vitro,inactive
same,IC50,"HeLa; HeLa, mean ± SD or individual values when n<3, 5-7 days",> 10 µM
